Reference: paper PMC9137512 (Antibiotics, 2022)

Key:
[1] = Stability of aqueous stock solution; format: physicochemical; settings: HPLC-UV
Description: (§2) For stability testing, two samples were thawed out and subsequently analyzed. Stability was defined by the time for which samples remained a concentration of > 90% of their baseline concentrations.

[2] = cited from earlier work
Description: Efficacy is associated with the area under the concentration-time curve (AUC) divided by the minimal inhibitory concentration (MIC). […] Standard in vitro me ...

clinical = settings: for level at 192 h: iv
Protocol: The samples were subsequently analyzed according to the described method. […] The patients’ estimated glomerular filtration (eGFR) was calculated by the chronic kidney disease epidemiology collaboration equation (CKD–EPI). The AUC was calculated using the trapezoidal rule.
(§1) Subsequently, samples were mixed for 10 s, stored in an ultrasonic bath for 10 min at 40 °C, then centrifuged at 8000× g for 5 min. Next, 100 µL of the resulting supernatant was further diluted with 500 µL water with 0.1% formic acid. […] Details are described in the Supplementary Materials (Figures S1–S3).
An aliquot of 20 µL was injected onto the HPLC–UV system equipped with a diode array detector (Nexera-I 3D plus, Shimadzu, Duisburg, Germany). Chromatographic analysis was performed using a reversed phase column Shim-pack XR-ODS III with 2.2 µm particle size (150 mm × 2 mm, Shimadzu, Duisburg, Germany) in combination with a column guard (Shim-pack GISS-H (G) C18, 3 µm; 10 mm × 2.1 mm, Shimadzu, Duisburg, Germany). Separation was performed using a gradient of 0.1% formic acid in acetonitrile and 0.1% formic acid in water with a flow rate of 0.35 mL/min. The autosampler and column were set at temperatures of 10 °C and 45 °C, respectively.

[3] = Stability of dalbavancin in human serum; settings: serum samples, HPLC-UV
Description: as §2

[4] = Free dalbavancin in patient serum by solid phase extraction with a centrifugal device (Nanosep); format: in vivo, human; settings: for fcmax(d1) *: day 1 peak; for fcmax(d1) * / fcmin(d8) *: free concentration determined by solid phase extraction (Nanosep); for fcmin(d8) *: day 8 trough; for fAUC(d8) *: from free concentration by solid phase extraction (Nanosep)
Protocol: The AUC was calculated using the trapezoidal rule.

[5] = Free concentration and protein binding in spiked human serum samples (Table S5)
Protocol: as §1
Table S5. […] In order to evaluate the
(a) Spiked human serum samples of 14 patients (8 critically ill and 6 non-critically ill) after calibration with sheep serum.
(b) Spiked human serum samples of 9 critically ill patients and 6 healthy volunteers after calibration with human serum.

[6] = S5a, serum of patient 2 (critically ill) spiked 200 mg/L, measured c 207 mg/L, calibration with sheep serum
[7] = S5a, serum of patient 3 (critically ill) spiked 50 mg/L, measured c 51.2 mg/L, calibration with sheep serum
[8] = S5b, serum of 26 (healthy volunteer) spiked 200 mg/L, measured c 219 mg/L, calibration with human serum
[9] = S5b, serum of 27 (healthy volunteer) spiked 50 mg/L, measured c 52.5 mg/L, calibration with human serum

Question: What does the source list for `CN[C@H]1C(=O)N[C@@H]2Cc3ccc(cc3)Oc3cc4cc(c3O[C@@H]3O[C@H](C(=O)O)[C@@H](O)[C@H](O)[C@H]3NC(=O)CCCCCCCCC(C)C)Oc3ccc(cc3Cl)[C@@H](O)[C@@H]3NC(=O)[C@H](NC(=O)[C@@H]4NC(=O)[C@@H](NC2=O)c2cc(cc(O)c2Cl)Oc2cc1ccc2O)c1ccc(O)c(c1)-c1c(O[C@H]2O[C@H](CO)[C@@H](O)[C@H](O)[C@@H]2O)cc(O)cc1[C@@H](C(=O)NCCCN(C)C)NC3=O` [dalbavancin, Dalbavancin]?
Answer: stability time (>90% of baseline concentration) ([1]; frozen at −80 °C): at least 12 months; stability time (>90% of baseline concentration) ([1]; refrigerated (2–8 °C)): at least 3 months; elimination half-life ([2]; approximately): > 14 days; clearance [2]: 0.05 L/h; Cmax (clinical; human, in vivo, 1500 mg, cmax(d1)): 278 µg/mL; level at 192 h (clinical; human, in vivo, 1500 mg, cmin(d8)): 44900 ng/mL; level at 192 h (clinical; human, in vivo, trough concentrations on day 8 before redosing): 23000 to 44900 ng/mL; peak concentrations after the initial dosing (clinical; range of three cardiologic patients, total serum): 201 to 278 mg/L; stability time (>90% of baseline concentration) ([3]; frozen at −20 °C): at least 1 month; stability time (>90% of baseline concentration) ([3]; frozen at −80 °C): at least 12 months; stability time (>90% of baseline concentration) ([3]; refrigerated (2–8 °C)): at least 96 h; stability time (>90% of baseline concentration) ([3]; room temperature): ≥ 48 h; maximum free fraction at total concentrations below the LOQ of 12.5 mg/L ([4]; in accordance with the higher protein binding observed): 0.4 mg/L; fcmax(d1) * ([4]; patient 1, 1500 mg): 5.4 mg/L; fcmin(d8) * ([4]; patient 1, 1500 mg): 1.3 mg/L; fAUC(d8) * ([4]; patient 1, 1500 mg): 31.2 mg·h/L; fcmax(d1) * ([4]; patient 2, 1500 mg): 6.4 mg/L; fcmin(d8) * ([4]; patient 2, 1500 mg): 1.0 mg/L; fAUC(d8) * ([4]; patient 2, 1500 mg): 24.0 mg·h/L; fcmax(d1) * ([4]; patient 3, 1500 mg): 6.7 mg/L; fcmin(d8) * ([4]; patient 3, 1500 mg): <1.0 mg/L; fAUC(d8) * ([4]; patient 3, 1500 mg): <24.0 mg·h/L; fc ([5]; S5a, serum of patient 1 (critically ill) spiked 50 mg/L, measured c 53.5 mg/L, Nanosep SPE, HPLC-UV, calibration with sheep serum): 1.4 mg/L; fc ([5]; S5a, serum of patient 1 (critically ill) spiked 200 mg/L, measured c 201 mg/L, calibration with sheep serum): 7.6 mg/L; fc ([5]; S5a, serum of patient 2 (critically ill) spiked 50 mg/L, measured c 53.6 mg/L, calibration with sheep serum): 1.7 mg/L; PB [5, 6]: 96%; fc [5, 6]: 9.0 mg/L; PB [5, 7]: 96%; fc [5, 7]: 1.9 mg/L; fc ([5]; S5a, serum of patient 3 (critically ill) spiked 200 mg/L, measured c 209 mg/L, calibration with sheep serum): 9.1 mg/L; fc ([5]; S5a, serum of patient 4 (critically ill) spiked 50 mg/L, measured c 54.2 mg/L, calibration with sheep serum): 1.6 mg/L; fc ([5]; S5a, serum of patient 4 (critically ill) spiked 200 mg/L, measured c 212 mg/L, calibration with sheep serum): 7.7 mg/L; fc ([5]; S5a, serum of patient 5 (critically ill) spiked 50 mg/L, measured c 53.0 mg/L, calibration with sheep serum): 2.1 mg/L; fc ([5]; S5a, serum of patient 5 (critically ill) spiked 200 mg/L, measured c 203 mg/L, calibration with sheep serum): 9.5 mg/L; fc ([5]; S5a, serum of patient 6 (critically ill) spiked 50 mg/L, measured c 50.4 mg/L, calibration with sheep serum): 1.5 mg/L; fc ([5]; S5a, serum of patient 6 (critically ill) spiked 200 mg/L, measured c 204 mg/L, calibration with sheep serum): 9.2 mg/L; fc ([5]; S5a, serum of patient 7 (critically ill) spiked 50 mg/L, measured c 49.1 mg/L, calibration with sheep serum): 2.4 mg/L; fc ([5]; S5a, serum of patient 7 (critically ill) spiked 200 mg/L, measured c 195 mg/L, calibration with sheep serum): 10.2 mg/L; fc ([5]; S5a, serum of patient 8 (critically ill) spiked 50 mg/L, measured c 54.3 mg/L, calibration with sheep serum): 1.8 mg/L; fc ([5]; S5a, serum of patient 8 (critically ill) spiked 200 mg/L, measured c 201 mg/L, calibration with sheep serum): 8.7 mg/L; fc ([5]; S5a, serum of patient 9 (non-critically ill) spiked 50 mg/L, measured c 40.0 mg/L, calibration with sheep serum): < 1.0 mg/L; fc ([5]; S5a, serum of patient 9 (non-critically ill) spiked 200 mg/L, measured c 177 mg/L, calibration with sheep serum): 3.7 mg/L; fc ([5]; S5a, serum of patient 10 (non-critically ill) spiked 50 mg/L, measured c 47.8 mg/L, calibration with sheep serum): < 1.0 mg/L; fc ([5]; S5a, serum of patient 10 (non-critically ill) spiked 200 mg/L, measured c 180 mg/L, calibration with sheep serum): 4.0 mg/L; fc ([5]; S5a, serum of patient 11 (non-critically ill) spiked 50 mg/L, measured c 38.6 mg/L, calibration with sheep serum): < 1.0 mg/L; fc ([5]; S5a, serum of patient 11 (non-critically ill) spiked 200 mg/L, measured c 177 mg/L, calibration with sheep serum): 3.5 mg/L; fc ([5]; S5a, serum of patient 12 (non-critically ill) spiked 50 mg/L, measured c 42.6 mg/L, calibration with sheep serum): < 1.0 mg/L; fc ([5]; S5a, serum of patient 12 (non-critically ill) spiked 200 mg/L, measured c 195 mg/L, calibration with sheep serum): 3.9 mg/L; fc ([5]; S5a, serum of patient 13 (non-critically ill) spiked 50 mg/L, measured c 53.0 mg/L, calibration with sheep serum): 1.1 mg/L; fc ([5]; S5a, serum of patient 13 (non-critically ill) spiked 200 mg/L, measured c 214 mg/L, calibration with sheep serum): 6.3 mg/L; fc ([5]; S5a, serum of patient 14 (non-critically ill) spiked 50 mg/L, measured c 50.0 mg/L, calibration with sheep serum): 1.1 mg/L; fc ([5]; S5a, serum of patient 14 (non-critically ill) spiked 200 mg/L, measured c 208 mg/L, calibration with sheep serum): 4.6 mg/L; fc ([5]; S5b, serum of 24 (healthy volunteer) spiked 50 mg/L, measured c 46.1 mg/L, calibration with human serum): 1.6 mg/L; fc ([5]; S5b, serum of 24 (healthy volunteer) spiked 200 mg/L, measured c 184 mg/L, calibration with human serum): 4.6 mg/L; fc ([5]; S5b, serum of 25 (healthy volunteer) spiked 50 mg/L, measured c 45.8 mg/L, calibration with human serum): 1.6 mg/L; fc ([5]; S5b, serum of 25 (healthy volunteer) spiked 200 mg/L, measured c 197 mg/L, calibration with human serum): 5.8 mg/L; fc ([5]; S5b, serum of 26 (healthy volunteer) spiked 50 mg/L, measured c 52.6 mg/L, calibration with human serum): 1.6 mg/L; PB [5, 8]: 97%; fc [5, 8]: 5.2 mg/L; PB [5, 9]: 97%; fc [5, 9]: 1.7 mg/L; PB ([5]; S5b, serum of 27 (healthy volunteer) spiked 200 mg/L, measured c 220 mg/L, calibration with human serum): 97%
